What all share (format): cell-based
The target of assay [1] is T1, CB2 (Homo sapiens, UniProt P34972). Kind of assay: BRET Gαi1 engagement, CB2 wild-type. The following applies: HEK-293T, read-out: E max, CB2 Gαi1 Engagement.
The target in a further assay is CB1 (Homo sapiens, UniProt P21554). Kind of assay: BRET Gαi1 engagement, CB1 wild-type. As to conditions: CB1 WT, HEK-293T, normalized against CP55940, mean ± SEM.
The target in a further assay is CB2 V261L (Homo sapiens, UniProt P34972, V261L). As to the kind of experiment: BRET Gαi1 engagement, CB2 V261L mutant. The following applies: read-out: E max, CB2 V261L Gαi1 Engagement. A general note: BRET reads energy transfer from a luciferase to a nearby fluorophore.
Chain of CB2 V261L (P34972 whole entry V261L): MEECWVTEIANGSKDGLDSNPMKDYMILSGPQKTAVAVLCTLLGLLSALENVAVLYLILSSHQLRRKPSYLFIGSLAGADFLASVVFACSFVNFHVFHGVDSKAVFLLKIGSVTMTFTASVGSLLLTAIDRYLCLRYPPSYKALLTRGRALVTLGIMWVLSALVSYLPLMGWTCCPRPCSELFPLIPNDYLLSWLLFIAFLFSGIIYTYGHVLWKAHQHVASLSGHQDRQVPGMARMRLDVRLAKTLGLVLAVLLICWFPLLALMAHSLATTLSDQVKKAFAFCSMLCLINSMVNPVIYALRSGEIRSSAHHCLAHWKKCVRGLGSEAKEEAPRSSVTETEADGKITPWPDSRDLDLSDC
Another assay has as its target CB1 I267L (Homo sapiens, UniProt P21554, I267L). Kind of assay: BRET Gαi1 engagement, CB1 I267L mutant. As to conditions: read-out: E max, CB1 I267L Gαi1 Engagement.
Assay [2] deals with T1, CB2. As to the kind of experiment: BRET β-arrestin 2 recruitment, CB2 wild-type. The following applies: HEK-293T, read-out: E max, CB2 β-Arrestin 2 Recruitment.
The target in a further assay is CB1 L193I (Homo sapiens, UniProt P21554, L193I). As to the kind of experiment: BRET Gαi1 engagement, CB1 L193I mutant. The following applies: read-out: E max, CB1 L193I Gαi1 Engagement.
Chain of CB1 L193I (P21554 whole entry L193I): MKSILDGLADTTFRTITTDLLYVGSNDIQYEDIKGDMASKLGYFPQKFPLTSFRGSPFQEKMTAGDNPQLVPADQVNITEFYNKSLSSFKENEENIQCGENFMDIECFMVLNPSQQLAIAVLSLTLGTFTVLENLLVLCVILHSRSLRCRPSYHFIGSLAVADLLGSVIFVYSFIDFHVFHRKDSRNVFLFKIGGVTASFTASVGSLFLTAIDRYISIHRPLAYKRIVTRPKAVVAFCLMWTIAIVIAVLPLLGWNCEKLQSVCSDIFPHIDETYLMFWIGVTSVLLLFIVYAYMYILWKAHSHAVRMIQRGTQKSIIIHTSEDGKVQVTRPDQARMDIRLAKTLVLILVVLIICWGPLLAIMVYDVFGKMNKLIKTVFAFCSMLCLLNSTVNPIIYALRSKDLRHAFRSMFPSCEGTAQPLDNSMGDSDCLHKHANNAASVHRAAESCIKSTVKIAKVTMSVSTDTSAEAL
Assay [3] addresses CB2 triple mutant (I110L/L182I/V261L) (Homo sapiens, UniProt P34972, I110L/L182I/V261L). Kind of assay: BRET Gαi1 engagement, CB2 triple mutant. As to conditions: read-out: E max, CB2 Triple Mutations Gαi1 Engagement.
Another assay addresses CB2 I110L (Homo sapiens, UniProt P34972, I110L). Kind of assay: BRET Gαi1 engagement, CB2 I110L mutant. As to conditions: read-out: E max, CB2 I110L Gαi1 Engagement.
The target of a further assay is CB2 L182I (Homo sapiens, UniProt P34972, L182I). Kind of assay: BRET Gαi1 engagement, CB2 L182I mutant. The following applies: read-out: E max, CB2 L182I Gαi1 Engagement.
Chain of CB2 L182I (P34972 whole entry L182I): as the sequence (P34972 whole entry V261L) above, with L182I, L261V counted along it

T1 sequence (P34972 whole entry): as the sequence (P34972 whole entry V261L) above, with L261V counted along it
Chain of CB1 (P21554 whole entry): as the sequence (P21554 whole entry L193I) above, with I193L counted along it
Chain of CB1 I267L (P21554 whole entry I267L): as the sequence (P21554 whole entry L193I) above, with I193L, I267L counted along it
Chain of CB2 I110L (P34972 whole entry I110L): as the sequence (P34972 whole entry V261L) above, with I110L, L261V counted along it
Chain of CB2 triple mutant (I110L/L182I/V261L) (P34972 whole entry I110L/L182I/V261L): as the sequence (P34972 whole entry V261L) above, with I110L, L182I counted along it

Consider `CCCCCCC(C)(C)c1ccc([C@@H]2C[C@H](O)CC[C@H]2CCCO)c(O)c1` [CP55940], for which the Emax was 99.8 ± 2.7% on CB2 [1]; 33.8 ± 2.6% at CB2 V261L; 77.6 ± 2.5% on CB1 I267L; 99.7 ± 2.7% on CB2 [2]; 98.2 ± 2.2% at CB1 L193I; 3 ± 2% in [3]. Further, the Emax is 83.1 ± 2.8% on CB2 I110L and 32.2 ± 2.5% at CB2 L182I. The “E max, CB1 Gαi1 Engagement” value at CB1 came to 99.4 ± 3.0%.
